Laboratory results from patent US20160101125A1, “COMPOSITIONS FOR USE IN CARTILAGE BREAKDOWN” (NESTEC S.A., priority 2013, published 2016).

Tests used:
Format in all cases: cell-based, Bos Taurus
Settings in all cases: 1.5 μM, 3 days
ADAMTS-5 mRNA = ADAMTS-5 mRNA expression in bovine primary chondrocytes in alginate beads (real-time PCR, relative to GAPDH)
COX-2 mRNA = COX-2 mRNA expression in bovine primary chondrocytes in alginate beads (real-time PCR, relative to GAPDH)
Description: The foot of a young cow was washed to remove soil. The skin was removed from the foot. The articulation was opened transversally. Intra articular ligaments were transected. The opened articulation was washed with phosphate buffered saline. With a scalpel blade, full thickness slices of cartilage were dissected out and collected in DMEM high glucose with 10 mM hepes and 1% Penicillin-Streptomycin. Slices of cartilage were washed in DMEM high glucose with 10 mM hepes and 1% Penicillin-Streptomycin.
Cartilage was then digested successively by 0.5 mg/ml of hyluronidase during 30 minutes, 1.0 mg/ml of pronase E during 60 minutes and 1.0 mg/ml of collagenase overnight under slow agitation. […]
Total RNA was isolated from pool of 40 beads and isolated using RNeasy kit from Qiagen. cDNA was obtained by reverse transcription of RNA with the Primescript 1st strand cDNA Synthesis kit from Takara. mRNA expression of ADAMTS-5, COX-2, MMP-13 and GAPDH were quantified in real-time PCR (SYBR Green)
FIGS. 1 to 3 show mRNA expression of ADAMTS-5, COX-2 and MMP-13 normalized by GAPDH mRNA expression after 3 days of culture. Data were expressed as fold change in gene expression compared to negative control (cells cultured in complete medium). Results were calculated according to the 2^−ΔΔCT method.
IL1a interleukin-1 alpha 10 ng/ml Data were expressed as median±S.E. Median (2 experiments of 3 replicates each). […]

MMP-13 mRNA = MMP-13 mRNA expression in bovine primary chondrocytes in alginate beads (real-time PCR, relative to GAPDH)
[1] = absence of IL1a (normal conditions)
[2] = presence of IL1a 10 ng/ml (disease conditions)

O=c1c(O)c(-c2ccc(O)c(O)c2)oc2cc(O)cc(O)c12 [QRC, quercetin]
ADAMTS-5 mRNA expression relative to GAPDH (ADAMTS-5 mRNA; [1]): decrease
ADAMTS-5 mRNA expression relative to GAPDH (ADAMTS-5 mRNA; [2]): decrease
COX-2 mRNA expression relative to GAPDH (COX-2 mRNA; [1]): reduce
COX-2 mRNA expression relative to GAPDH (COX-2 mRNA; [2]): decrease
MMP-13 mRNA expression relative to GAPDH (MMP-13 mRNA; [1]): decrease
MMP-13 mRNA expression relative to GAPDH (MMP-13 mRNA; [2]): decrease
